Assay results: the CheMixHub viscosity set

Test: xn = mol fraction of the nth substance listed

CCC(C)CO (stereo unspecified) + COc1ccccc1
viscosity [mPa·s], 101.33 kPa
Conditions | x2 = 0.1005 | x2 = 0.2004 | x2 = 0.3003 | x2 = 0.4012 | x2 = 0.5001 | x2 = 0.6005 | x2 = 0.6996 | x2 = 0.8001 | x2 = 0.9003
303.15 K | 2.761 | 2.126 | 1.665 | 1.347 | 1.149 | 1.032 | 0.968 | 0.932 | 0.912
313.15 K | 2.026 | 1.601 | 1.296 | 1.084 | 0.952 | 0.868 | 0.824 | 0.803 | 0.794
323.15 K | 1.552 | 1.246 | 1.022 | 0.872 | 0.784 | 0.739 | 0.718 | 0.707 | 0.698

CC(C)O + CCO
101 kPa
Conditions | viscosity [mPa·s]
298.15 K, x2 = 0.214 | 1.796
298.15 K, x2 = 0.393 | 1.607
298.15 K, x2 = 0.565 | 1.445
298.15 K, x2 = 0.725 | 1.299
298.15 K, x2 = 0.869 | 1.182
308.15 K, x2 = 0.5 | 1.186
313.15 K, x2 = 0.5 | 1.066
318.15 K, x2 = 0.5 | 0.9542

C1=CCCCC1 + C1CCCCC1
303.15 K, 101 kPa
Conditions | viscosity [mPa·s]
x1 = 0.1133 | 0.772
x1 = 0.2435 | 0.745
x1 = 0.3293 | 0.725
x1 = 0.3919 | 0.72
x1 = 0.4866 | 0.684
x1 = 0.582 | 0.678
x1 = 0.7181 | 0.654
x1 = 0.8663 | 0.62

CC(C)CC1CCCCC1 + CCCCCCCCCCCCCCCC
viscosity [mPa·s], 102 kPa
Conditions | x1 = 0.1 | x1 = 0.2005 | x1 = 0.3003 | x1 = 0.3992 | x1 = 0.5037 | x1 = 0.6003 | x1 = 0.6997 | x1 = 0.7997
293.15 K | 3.22 | 2.96 | 2.7 | 2.46 | 2.2 | 1.99 | 1.77 | 1.56
303.15 K | 2.57 | 2.38 | 2.19 | 2.01 | 1.82 | 1.65 | 1.48 | 1.31
313.15 K | 2.1 | 1.95 | 1.81 | 1.67 | 1.52 | 1.39 | 1.26 | 1.12
323.15 K | 1.74 | 1.63 | 1.52 | 1.41 | 1.29 | 1.19 | 1.07 | 0.972

N#CCc1ccccc1 + ClCCCl
101 kPa
Conditions | viscosity [mPa·s]
303.15 K, x1 = 0.9705 | 1.725
313.15 K, x1 = 0.648 | 1.165

O=[N+]([O-])[O-].[K+] + O
viscosity [mPa·s]
Conditions | x1 = 0.0009 | x1 = 0.0018 | x1 = 0.00893 | x1 = 0.0177 | x1 = 0.02 | x1 = 0.02631 | x1 = 0.03478 | x1 = 0.0431 | x1 = 0.05127
293.15 K, 101.3 kPa | 0.999 | 0.9967 | 0.9784 | 0.9678 | – | – | – | 0.9855 | 1.002
298.15 K, 101.3 kPa | – | 0.887 | 0.875 | – | – | – | 0.8802 | 0.8927 | 0.9095
303.15 K, 101.3 kPa | 0.7964 | 0.7957 | 0.7884 | 0.7866 | – | 0.791 | 0.8004 | 0.8138 | 0.8319
308.15 K, 101.3 kPa | 0.7193 | 0.7184 | 0.7156 | 0.7174 | – | 0.7235 | 0.7334 | – | 0.7636
318.15 K, 101.3 kPa | 0.5964 | 0.5967 | 0.5993 | 0.6038 | – | 0.6128 | – | 0.6376 | 0.6543
323.15 K, 101 kPa | – | – | – | – | 0.565 | – | – | – | –
